Measurements from US10300155B2, “Alpha-synuclein ligands” (Washington University, priority 2015, dated 2019).
“And” between values parts separate entries of the source, which are not always exact repeats. Equal entries are not always repeated. Where two headings read alike, the source gives them in different places.

Experiments:
α-synuclein fibrils [1] = target: T1, α-synuclein fibrils (Homo sapiens, UniProt P37840); assay: Thioflavin T competition assay (Example 130, Table 9), α-synuclein fibrils; type: binding
T1 construct: made in house; host or cells: E. coli BL21(DE3)RIL
Procedure: (§1) Freshly transformed BL21 colonies were inoculated into 2 L baffled flasks containing 250 ml sterilized TB (1.2% bactotryptone, 2.4% yeast extract, 0.4% glycerol, 0.17 M KH2PO4, 0.72 M K2HPO4) with 50 μg/ml ampicillin, and incubated overnight at 37° C. with shaking.
Competition assays used a fixed concentration of α-syn, Aβ, or tau fibrils (1 μM), consisting of 3 μM, 50 nM and 4 μM of ThioflavinT respectively. […] To optimize the determination of selectivity, assays for all three fibril species were set up in parallel using a common set of intermediate compound dilutions for each analog. Reactions were incubated at room temperature for 1.5 h before quantifying bound ligand as described above for the saturation binding assay. […] All data points were performed in triplicate. Nonspecific fluorescence was measured in parallel reactions containing ThioT plus each concentration of competitor but no fibrils, and these measurements were subtracted from the reactions with fibrils to yield fibril-specific fluorescence. Data were analyzed using Graphpad. Prism software (version 4.0) to obtain EC50 values by fitting the data to the equation Y=bottom+(top-bottom)/(1+10^(x−log EC50)).

α-synuclein fibrils [2] = target: T1, α-synuclein fibrils; assay: ThT competitive assay for α-synuclein fibrils (Table 1); type: binding; details: for EC50: α-synuclein fibrils
Procedure: Upon binding to amyloid fibrils, a peak at approximately 440 nm becomes dominant with the fluorescent emission maximum shifted to 480 nm. This is accompanied by a strong enhancement of the fluorescence.
as §1, with “α-Synuclein recombinant protein was produced in E. coli. […] Freshly” for “Freshly”, “250 mL” for “250 ml”
To determine the concentration of fibrils, the reaction mixture (100 μL) was centrifuged at 18,000×g for 10 minutes to separate fibrils from monomer. The α-synuclein monomer and other soluble proteins in the supernatant were removed, and the fibril pellet was resuspended in 100 μL solution of Tris-HCl (20 mM) and NaCl (100 mM). This fibril suspension was used in a bicinchoninic acid (BCA) protein assay along with a bovine serum albumin (BSA) standard curve to determine the concentration of fibrils in the 72 hour fibril reaction mixture.
To prepare the fibrils for performing binding assays, the fibril reaction mixture prepared above was centrifuged at 18,000×g for 10 minutes.
Once the ThT-α-synuclein saturation binding curve and dissociation constant (Kd) were determined the competitive assay for determining the binding affinity of various test compounds was conducted. […] The mixture was incubated at room temperature for 60 minutes on the shaking plate. The fluorescent intensity for each cell was measured by the fluorescence reader at λex and λem. The Ki value for each compound was calculated by the corresponding inhibition curve.
The Ki values were derived from the EC50 values using the Cheng-Prusoff equation: Ki=EC50/(1+[radioligand]/Kd). See FIGS. 17.1-31.2 for the inhibition curves for each compound in the ThioT competitive binding assay.

tau fibrils [3] = target: T2, tau fibrils (Homo sapiens, UniProt P10636); assay: ThT competitive assay for tau fibrils (Table 3); type: binding; design: made in house; host or cells: E. coli; details: for EC50: tau fibrils
Procedure: Tau fibril recombinant protein was produced in E. coli. Additional preparation was performed in a similar fashion to Example 115.
Target sequence in this assay (P10636 560-692 limits assumed): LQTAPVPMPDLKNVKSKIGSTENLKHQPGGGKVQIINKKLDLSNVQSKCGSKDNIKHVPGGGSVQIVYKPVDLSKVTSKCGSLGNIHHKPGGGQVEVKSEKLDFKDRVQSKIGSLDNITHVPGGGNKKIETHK

PD Tissue = assay: Radioligand saturation binding, PD postmortem brain tissue; design: species or system human; details: brain tissue homogenate
Description: (§2) Brain tissue samples were selected from an autopsy case series of patients evaluated for parkinsonism by movement disorders specialists at the Movement Disorders Center of Washington University School of Medicine in St. Louis. The clinical diagnosis of idiopathic PD was based on modified United Kingdom Parkinson's Disease Society Brain Bank clinical diagnostic criteria with clear clinical response to levodopa [Hughes, A. J., et al, “Accuracy of clinical diagnosis of idiopathic Parkinson's disease: a clinico-pathological study of 100 cases,” 1992, J. Neurol. Neurosurg. Psychiatry, 55:181-184]. Dementia was determined by a movement disorders specialist based on clinical assessment of cognitive dysfunction sufficiently severe to impair activities of daily living, with further evaluation of cognitive impairment using the AD8 and Mini-Mental Status Exam (MMSE) [Galvin, J. E., et al., “The AD8: a brief informant interview to detect dementia,” 2005, Neurology 65:559-564; Folstein, M. F., et al., ““Mini-mental state”. A practical method for grading the cognitive state of patients for the clinician,” 1975, J. Psychiatr Res, 12:189-198]. LB stage was assessed at autopsy using a PD staging scale (range: 0, 1-6) [Braak, H., et al., “Stages in the development of Parkinson's disease-related pathology,” 2004, Cell Tissue Res., 318:121-134]. PD cases were selected based on a clinical diagnosis of PD plus dementia, Braak LB stage 5-6 pathology, and the absence of significant Aβ or tau pathology determined by immunohistochemistry. Control cases were selected based on the absence of α-synuclein, Aβ and tau pathology. Samples were used from both male and female subjects.
(§3) Grey matter was isolated from frozen postmortem frontal cortex tissue by dissection with a scalpel. To prepare insoluble fractions, dissected tissue was sequentially homogenized in four buffers (3 ml/g wet weight of tissue) with glass Dounce tissue grinders (Kimble): 1) High salt (HS) buffer: 50 mM Tris-HCl pH 7.5, 750 mM NaCl, 5 mM EDTA; 2) HS buffer with 1% Triton X-100; 3) HS buffer with 1% Triton X-100 and 1 M sucrose; and 4) phosphate buffered saline (PBS). Homogenates were centrifuged at 100,000×g after each homogenization step and the pellet was resuspended and homogenized in the next buffer in the sequence. For comparison in initial binding studies, crude tissue homogenates were also prepared by homogenization of tissue in only PBS. […]
(§4) Saturation binding assays combine binding substrate and varying radioligand concentrations, with or without the addition of a high concentration (50-100 times the estimated Kd) of a competitor compound to determine nonspecific binding. […] Specific binding is determined by subtracting nonspecific binding from total binding. […]

α-synuclein fibrils [4] = target: T1, α-synuclein fibrils; assay: Radioligand binding assay with α-synuclein fibrils (Table 8)
Control Tissue = assay: Radioligand saturation binding, control postmortem brain tissue; design: species or system human; details: brain tissue homogenate
Description: as §2, §3, §4

AD Tissue = assay: Radioligand saturation binding, AD postmortem brain tissue; design: species or system human; details: brain tissue homogenate
Aβ1-42 fibrils = target: T3, Aβ1-42 fibrils (Homo sapiens, UniProt P05067); assay: Radioligand binding assay with Aβ1-42 fibrils (Table 8)
T3 construct: Synthetic Aβ42 peptide (1 mg) (Bachem, Torrance, Calif.); purchased Bachem, Torrance, Calif; host or cells: synthetic peptide
Procedure: Synthetic Aβ42 peptide (1 mg) (Bachem, Torrance, Calif.) was first dissolved in 50 μl DMSO. An additional 925 μl of mQ-H2O was added. Finally, 25 μl 1M Tris-HCl pH 7.6 was added to bring the final peptide concentration to 222 μM (1 mg/ml) [16]. The dissolved peptide was incubated for 30 h at 37° C. with shaking at 1000 rpm in an Eppendorf Thermomixer. Fibril formation was confirmed by ThioT fluorescence. To determine the concentration of fibrils, the fibril reaction mix was centrifuged at 15,000×g for 15 min to separate fibrils from monomer. The concentration of Aβ monomer in the supernatant was determined in a BCA protein assay using a BSA standard curve that contained DMSO at a percentage equivalent to the samples. […]
A fixed concentration (1 μM) of α-syn, Aβ, or tau fibrils were incubated for 2 h at 37° C. with increasing concentrations of ThioT in 30 mM Tris-HCl pH 7.4, 0.1% BSA in a reaction volume of 150 μl. Nonspecific binding was determined in a duplicate set of binding reactions containing the same concentration of ThioT with no fibrils. Fluorescence was determined in a Biotek plate reader using a 440/30 excitation filter and a 485/20 emission filter. […] The dissociation constant (Kd) and the maximal number of binding sites (Bmax) values were determined by fitting the data to the equation Y=Bmax*X/(X+Kd) by nonlinear regression using Graphpad Prism software (version 4.0).

tau fibrils [5] = target: T2, tau fibrils; assay: Radioligand binding assay with tau fibrils (Table 8); design: made in house; host or cells: E. coli BL21(DE3)RIL
Target sequence in this assay (P10636 560-692): as the sequence (P10636 560-692 limits assumed) above

[6] = average, read-out: α-synuclein EC50 (avg)
[7] = average, read-out: α-synuclein Ki (avg)
[8] = individual determinations, read-out: α-synuclein EC50
[9] = individual determinations, read-out: α-synuclein Ki
[10] = average, read-out: Ki (nM) α-syn (avg)
[11] = individual determinations, read-out: Ki (nM) α-syn
[12] = average, read-out: EC50 (nM) EC50 (avg)
[13] = individual determinations, read-out: EC50 (nM) EC50

T3 sequence (P05067 672-713 limits assumed): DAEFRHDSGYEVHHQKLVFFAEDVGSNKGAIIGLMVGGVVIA

## COc1ccc2nc(/C=C/c3ccoc3)ccc2c1 [TZ-36-54]
α-synuclein fibrils [1]; [6]
  EC50: 178 nM
α-synuclein fibrils [1]; [7]
  Ki: 68.5 nM
α-synuclein fibrils [1]; [8]
  EC50: 169 nM and 188 nM
α-synuclein fibrils [1]; [9]
  Ki: 65 nM and 72 nM
α-synuclein fibrils [2]; [10]
  Ki: 68.5 nM
α-synuclein fibrils [2]; [11]
  Ki: 65 nM and 72 nM
α-synuclein fibrils [2]; [12]
  EC50: 178 nM
α-synuclein fibrils [2]; [13]
  EC50: 169 nM and 188 nM

## COc1cc(/C=C/c2ccc3cc(OC(C)C)ccc3n2)ccn1 [TZ-36-138]
α-synuclein fibrils [1]; [6]
  EC50: 128 nM
α-synuclein fibrils [1]; [7]
  Ki: 49 nM
α-synuclein fibrils [1]; [8]
  EC50: 128 nM
α-synuclein fibrils [1]; [9]
  Ki: 49 nM
α-synuclein fibrils [2]; [10]
  Ki: 49 nM
α-synuclein fibrils [2]; [11]
  Ki: 49 nM
α-synuclein fibrils [2]; [12]
  EC50: 128 nM
α-synuclein fibrils [2]; [13]
  EC50: 128 nM

## COc1ccc2nc(C#Cc3ccnc(OC)c3)ccc2c1 [TZ-36-142]
α-synuclein fibrils [1]; [6]
  EC50: 609 nM
α-synuclein fibrils [1]; [7]
  Ki: 233 nM
α-synuclein fibrils [1]; [8]
  EC50: 609 nM
α-synuclein fibrils [1]; [9]
  Ki: 233 nM
α-synuclein fibrils [2]; [10]
  Ki: 233 nM
α-synuclein fibrils [2]; [11]
  Ki: 233 nM
α-synuclein fibrils [2]; [12]
  EC50: 609 nM
α-synuclein fibrils [2]; [13]
  EC50: 609 nM

## COCOc1ccc2nc(/C=C/c3ccnc(OC)c3)ccc2c1 [TZ-36-144]
α-synuclein fibrils [1]; [6]
  EC50: 110 nM
α-synuclein fibrils [1]; [7]
  Ki: 42 nM
α-synuclein fibrils [1]; [8]
  EC50: 110 nM
α-synuclein fibrils [1]; [9]
  Ki: 42 nM
α-synuclein fibrils [2]; [10]
  Ki: 42 nM
α-synuclein fibrils [2]; [11]
  Ki: 42 nM
α-synuclein fibrils [2]; [12]
  EC50: 110 nM
α-synuclein fibrils [2]; [13]
  EC50: 110 nM

## COc1cc(/C=C/c2ccc3cc(O)ccc3n2)ccn1 [TZ-36-146]
α-synuclein fibrils [1]; [6]
  EC50: 332 nM
α-synuclein fibrils [1]; [7]
  Ki: 127 nM
α-synuclein fibrils [2]; [10]
  Ki: 127 nM
α-synuclein fibrils [2]; [12]
  EC50: 332 nM
Tau fibrils [3]; average, read-out: Ki (nM) Tau (avg)
  Ki: 113 nM
Tau fibrils [3]; individual determinations, read-out: Ki (nM) Tau
  Ki: 124 nM and 102 nM
Tau fibrils [3]; average, read-out: EC50m (nM) EC50 (avg)
  EC50: 278 nM
Tau fibrils [3]; individual determinations, read-out: EC50m (nM) EC50
  EC50: 305 nM and 251 nM

## COc1ccc2nc(/C=C/c3ccnc(OC)c3)ccc2c1 [[^11C]TZ-36-28-2T]
PD Tissue
  Kd: 55 nM
  PD Tissue Bmax (pmol/nmol): 367 pmol/nmol
α-synuclein fibrils [4]
  α-synuclein Bmax (pmol/nmol): 51 pmol/nmol
Control Tissue
  Control Tissue Bmax (pmol/nmol): 1081 pmol/nmol
  Kd: 158 nM
AD Tissue
  AD Tissue Bmax (pmol/nmol): 4316 pmol/nmol

## COc1cc(/C=C/c2ccc3cc(OCC[18F])ccc3n2)ccn1 [[^18F]TZ-36-148]
PD Tissue
  PD Tissue Bmax (pmol/nmol): 1510 pmol/nmol
α-synuclein fibrils [4]
  α-synuclein Bmax (pmol/nmol): 29 pmol/nmol
Control Tissue
  Control Tissue Bmax (pmol/nmol): 604 pmol/nmol
Aβ1-42 fibrils
  Aβ1-42 fibrils Bmax (pmol/nmol): 28 pmol/nmol
Tau fibrils [5]
  Tau fibrils Bmax (pmol/nmol): 58 pmol/nmol
AD Tissue
  AD Tissue Bmax (pmol/nmol): 12945 pmol/nmol
